Assay results: ChEMBL document CHEMBL4421722, “Inhibitors of protein prenyltransferases” (2013)

Legend:
Rattus norvegicus [1] = species on record: Rattus norvegicus; assay: Inhibition of rat recombinant geranylgeranyltransferase type I expressed in Escherichia coli assessed as residual enzyme activity for geranylgeranylation of K-Ras4B at 50 uM incubated for 30 mins in presence of [3H]GGPP by scintillation counting assay relative to control
Rattus norvegicus [2] = species on record: Rattus norvegicus; assay: Inhibition of rat recombinant geranylgeranyltransferase type I expressed in Escherichia coli assessed as residual enzyme activity for geranylgeranylation of RhoA at 50 uM incubated for 30 mins in presence of [3H]GGPP by scintillation counting assay relative to control

Activity (Rattus norvegicus [1]) [%]	Activity (Rattus norvegicus [2]) [%]	SMILES
25.1 to 26	12	Cc1ccc(S(=O)(=O)N2C[C@@H](C(=O)O)[C@H](SCCC(C)C)C[C@H]2c2cccc(Cl)c2)cc1
11.5 to 18.1	8.3	Cc1ccc(S(=O)(=O)N2C[C@@H](C(=O)O)[C@H](SCc3ccccc3)C[C@H]2c2cccc(Cl)c2)cc1
8.7 to 12	7.8	Cc1ccccc1S(=O)(=O)N1C[C@@H](C(=O)O)[C@H](SCc2ccccc2)C[C@H]1c1ccc(Cl)cc1
8.6 to 24.9	3.2	Cc1ccc(S(=O)(=O)N2[C@@H](c3cccc(Br)c3)C(C(=O)O)=CC[C@H]2c2ccc(Cl)c(Cl)c2)cc1
8.5 to 16.7	-1.2	CCCCS[C@@H]1C[C@@H](c2cccc(Cl)c2)N(S(=O)(=O)c2ccc(C)cc2)C[C@H]1C(=O)O
97.2	11.9	COc1ccc([C@@H]2C[C@@H](Sc3ccccc3)[C@H](C(=O)O)CN2S(=O)(=O)c2ccc(Cl)cc2)cc1
10.2 to 13.8	5.3	Cc1ccc([C@@H]2C[C@@H](SCCc3ccccc3)[C@H](C(=O)O)CN2S(=O)(=O)c2ccccc2C)cc1
12.4 to 17.4	15.6	Cc1ccc([C@H]2C(C(=O)O)=CC[C@@H](c3ccc(Cl)c(Cl)c3)N2S(=O)(=O)c2ccc(C)cc2)cc1
75.5	7.8	Cc1ccccc1S(=O)(=O)N1C[C@@H](C(=O)O)[C@H](Sc2ccccc2)C[C@H]1c1ccc(Cl)cc1
20.8 to 27.1	8.5	COc1ccc([C@@H]2C[C@@H](SCc3ccc(Cl)cc3)[C@H](C(=O)O)CN2S(=O)(=O)c2ccc(Cl)cc2)cc1
21.3 to 24.5	13	Cc1ccccc1S(=O)(=O)N1C[C@@H](C(=O)O)[C@H](SCc2ccc(Cl)cc2)C[C@H]1c1ccc(Cl)cc1
40	4.6	Cc1ccc(S(=O)(=O)N2C[C@@H](C(=O)O)[C@H](Sc3ccccc3)C[C@H]2c2ccc(Cl)cc2)cc1
4 to 6	-4.7 to 10.5	Cc1ccc([C@@H]2C[C@@H](Sc3ccc(Cl)cc3)[C@H](C(=O)O)CN2S(=O)(=O)c2ccccc2C)cc1
11.5 to 15.8	4.6	Cc1ccc(S(=O)(=O)N2C[C@@H](C(=O)O)[C@H](SCc3ccccc3)C[C@H]2c2ccc(Cl)cc2)cc1
10.6 to 19.2	8.8	Cc1ccccc1S(=O)(=O)N1[C@@H](c2cccc(Br)c2)C(C(=O)O)=CC[C@H]1c1ccc(Cl)cc1
28.5 to 85.1	10.8	CCCCCS[C@@H]1C[C@@H](c2cccc(Br)c2)N(S(=O)(=O)c2ccc(C)cc2)C[C@H]1C(=O)O
11.2 to 12.6	4.1	Cc1ccccc1S(=O)(=O)N1C[C@@H](C(=O)O)[C@H](SCCc2ccccc2)C[C@H]1c1ccc(Cl)cc1
5.5 to 7.6	2.9	Cc1ccc(S(=O)(=O)N2C[C@@H](C(=O)O)[C@H](SCc3ccccc3)C[C@H]2c2cccc(Br)c2)cc1
10.7 to 26	4.5	Cc1ccc(S(=O)(=O)N2C(c3ccc(Cl)c(Cl)c3)CC=C(C(=O)O)C2c2cccc(Cl)c2)cc1 (stereo not drawn)
15.1	6.8	C=CCS[C@H]1[C@@H](C(=O)O)[C@H](c2ccc(Cl)c(Cl)c2)N(S(=O)(=O)c2ccc(C)cc2)[C@@H]1CCCCCC
88.8	13.4	COc1ccc([C@@H]2C[C@@H](Sc3ccc(Cl)cc3)[C@H](C(=O)O)CN2S(=O)(=O)c2ccccc2)cc1
8.6 to 17.3	5	O=C(O)C1=CC[C@@H](c2ccc(Cl)cc2)N(S(=O)(=O)c2ccc(Cl)cc2)[C@H]1c1cccc(Br)c1

Activity (Rattus norvegicus [1]) [%]	Activity (Rattus norvegicus [2]) [%]	SMILES
15.2 to 16.5	5.8	Cc1ccc(S(=O)(=O)N2C[C@@H](C(=O)O)[C@H](SCCc3ccccc3)C[C@H]2c2ccccc2)cc1
14.7	4.1	CCC[C@@H]1[C@@H](Sc2ccc(C)cc2)[C@@H](C(=O)O)[C@H](c2cccc(F)c2)N1S(=O)(=O)c1ccc(C)cc1
5.4 to 13.4	3	Cc1ccccc1S(=O)(=O)N1[C@@H](c2cccc(F)c2)C(C(=O)O)=CC[C@H]1c1ccc(Cl)cc1
11 to 23.1	7	Cc1ccc(S(=O)(=O)N2[C@@H](c3cccc(Br)c3)C(C(=O)O)=CC[C@H]2c2cccc(Cl)c2)cc1
25.9 to 28.7	11.9	COc1ccc([C@@H]2C[C@@H](SCc3ccccc3)[C@H](C(=O)O)CN2S(=O)(=O)c2ccc(Cl)cc2)cc1
12.1	8.6	C=CCS[C@H]1[C@@H](C(=O)O)[C@H](c2ccc(Cl)c(Cl)c2)N(S(=O)(=O)c2ccc(C)cc2)[C@@H]1CC1CCCC1
12.8 to 15.7	8.1	Cc1ccc(S(=O)(=O)N2C[C@@H](C(=O)O)[C@H](SCc3ccccc3)C[C@H]2c2ccccc2F)cc1
22.3	8.1	C=CCS[C@H]1[C@@H](C(=O)O)[C@H](c2ccc(OC)c(OC)c2)N(S(=O)(=O)c2ccc(C)cc2)[C@@H]1CCCCCC
11.4 to 18.8	1.3	Cc1ccc(S(=O)(=O)N2C[C@@H](C(=O)O)[C@H](SCC(C)C)C[C@H]2c2cccc(Br)c2)cc1
33.1	26.7	O=C(O)C1=CC[C@@H](c2ccc(Cl)cc2)N(S(=O)(=O)c2ccc(Cl)cc2)[C@H]1c1cccc(Cl)c1
20.2	7.8	CCC[C@@H]1[C@@H](SCCC(=O)OC(C)(C)C)[C@@H](C(=O)O)[C@H](c2cccc(F)c2)N1S(=O)(=O)c1ccc(C)cc1
4.7 to 7.3	3.1	Cc1ccc(S(=O)(=O)N2C[C@@H](C(=O)O)[C@H](SCCc3ccccc3)C[C@H]2c2cccc(Br)c2)cc1
25.5	6.5	CC[C@@H]1[C@@H](Sc2ccc(OC)cc2)[C@@H](C(=O)O)[C@H](c2cccc(Cl)c2)N1S(=O)(=O)c1ccc(C)cc1
31.9	8.2	Cc1ccc(S(=O)(=O)N2[C@H](CC3CCCC3)[C@@H](SCCC(=O)OC(C)(C)C)[C@@H](C(=O)O)[C@@H]2c2cccc(F)c2)cc1
15.6 to 81.1	12.4	Cc1cccc([C@H]2C(C(=O)O)=CC[C@@H](c3ccc(Cl)cc3)N2S(=O)(=O)c2ccccc2C)c1
21.7	9.2	CCC[C@@H]1[C@@H](SCCC(=O)OC(C)(C)C)[C@@H](C(=O)O)[C@H](c2ccc(Cl)cc2)N1S(=O)(=O)c1ccc(Cl)cc1
20.8 to 24.2	11.4	COc1cccc([C@@H]2C[C@@H](SCCc3ccccc3)[C@H](C(=O)O)CN2S(=O)(=O)c2ccc(C)cc2)c1
16.1	7.3	Cc1ccc(S(=O)(=O)N2[C@H](CC3CCCC3)[C@@H](SCCC(=O)OC(C)(C)C)[C@@H](C(=O)O)[C@@H]2c2ccc(Cl)c(Cl)c2)cc1
16.4 to 17.8	9.4	C=CCS[C@@H]1C[C@@H](c2ccc(Cl)cc2)N(S(=O)(=O)c2ccccc2C)C[C@H]1C(=O)O
73.2	8.6	COc1ccc([C@@H]2C[C@@H](Sc3ccc(Cl)cc3)[C@H](C(=O)O)CN2S(=O)(=O)c2ccc(Cl)cc2)cc1
72.4	2.6	CCOc1ccc([C@@H]2C[C@@H](Sc3ccc(Cl)cc3)[C@H](C(=O)O)CN2S(=O)(=O)c2ccc(C)cc2)cc1
15.5 to 18.1	4.9	Cc1ccc(S(=O)(=O)N2C[C@@H](C(=O)O)[C@H](SCc3ccc(Cl)cc3)C[C@H]2c2ccc(Cl)cc2)cc1
